Source: US10829798B2, “DNA-linked enzyme-coupled assays” (THE REGENTS OF THE UNIVERSITY OF CALIFORNIA, priority 2014, dated 2020)

Tests used:
GT05 (UGT72B1 (Q9M156)) = biological target: T1, GT05 (UGT72B1 (Q9M156)) (Arabidopsis thaliana, UniProt Q9M156); test: qPCR DLEnCA, cell-free transcription/translation-derived GT05; assay type: biochemical; conditions: GT05 DNA 5 nM, chemical 1 mM, UDP-Glc 2 μM, probe 0.2 nM; low recovery = substrate glucosylated
T1 construct: made in house; host or cells: PURExpress In Vitro Protein Synthesis Kit (NEB E6800L), cell-free transcription/translation, linear DNA amplified from pET15b construct
T1 sequence (Q9M156 1-480): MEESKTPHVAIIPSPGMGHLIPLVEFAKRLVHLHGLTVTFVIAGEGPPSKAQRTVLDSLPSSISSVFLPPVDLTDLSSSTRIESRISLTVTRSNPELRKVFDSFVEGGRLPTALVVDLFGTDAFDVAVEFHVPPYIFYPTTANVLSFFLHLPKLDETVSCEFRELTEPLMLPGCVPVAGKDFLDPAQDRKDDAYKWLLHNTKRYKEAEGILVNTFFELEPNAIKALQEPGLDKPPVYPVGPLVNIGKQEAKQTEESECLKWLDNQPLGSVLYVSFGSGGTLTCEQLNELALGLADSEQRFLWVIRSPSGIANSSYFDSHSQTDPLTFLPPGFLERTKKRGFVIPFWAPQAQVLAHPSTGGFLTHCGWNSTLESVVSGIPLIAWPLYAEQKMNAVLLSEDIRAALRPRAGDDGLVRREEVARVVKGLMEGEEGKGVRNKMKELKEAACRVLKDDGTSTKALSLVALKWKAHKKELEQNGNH
Protocol: (§1) FIG. 4A-FIG. 4D. qPCR DLEnCA and substrate specificity studies. A. Chemicals used as substrates in subsequent assays: (i) known substrates of OleD; (ii) flavone library; (iii) known substrates of GT05 (UGT72B1 (Q9M156)) and GT06 (UGT89B1 (AT1 G73880)). B. DNA encoding OleD (5 nM) was incubated in a cell-free transcription/translation system for 3 hours at 37° C., followed by the addition of chemical (1 mM) and UDP-Glc (2 μM). After a subsequent incubation of 3 hours, TbGT and probe (0.2 nM) were added. After probe purification and MfeI digestion, probe integrity was identified using qPCR. Percent recovery of probe is reported (n=8; error bars=standard error). C. DNA encoding OleD (5 nM) was incubated for 3 hours at 37° C. in a cell-free transcription/translation system, followed by the addition of flavone (1 mM) and UDP-Glc (2 μM). After a subsequent incubation of 3 hours, TbGT and probe (0.2 nM) were added. After probe purification and MfeI addition, probe integrity was identified using qPCR. Percent recovery of probe is reported (n=8; error bars=standard error). D. DNA encoding OleD, GT05, or GT06 (5 nM) were incubated for 3 hours at 37° C. in a cell-free transcription/translation system, followed by the addition of chemical (1 mM) and UDP-Glc (2 μM). After a subsequent incubation of 3 hours, TbGT and probe (0.2 nM) were added. After probe purification and MfeI digestion, probe integrity was identified using qPCR. Percent recovery of probe is reported as a heat map (n=8) (specific recovery figures and percent error can be found in FIG. 16). *=p<0.05 vs. no chemical control.
PCR tubes were used for most reactions. All incubations were performed at 37° C. Assays were initiated upon the addition of linear DNA (5 nM final concentration) to 4 μl PURExpress Solution A and 3 μl PURExpress Solution B. Samples were incubated at 37° C. for 3 hours prior to addition of UDP-Glucose and chemical (1 mM final concentration) in DMSO. Samples were incubated for an additional 3 hours prior to addition of 1 unit T4 Phage β-glucosyltransferase containing 0.2 nM probe. […]

[1] = biological target: T2, GT06 (UGT89B1 (AT1G73880)) (Arabidopsis thaliana, UniProt Q9C9B0); test: qPCR DLEnCA, cell-free transcription/translation-derived GT06; assay type: biochemical; conditions: GT06 DNA 5 nM, chemical 1 mM, UDP-Glc 2 μM, probe 0.2 nM; low recovery = substrate glucosylated
T2 sequence (Q9C9B0 1-473): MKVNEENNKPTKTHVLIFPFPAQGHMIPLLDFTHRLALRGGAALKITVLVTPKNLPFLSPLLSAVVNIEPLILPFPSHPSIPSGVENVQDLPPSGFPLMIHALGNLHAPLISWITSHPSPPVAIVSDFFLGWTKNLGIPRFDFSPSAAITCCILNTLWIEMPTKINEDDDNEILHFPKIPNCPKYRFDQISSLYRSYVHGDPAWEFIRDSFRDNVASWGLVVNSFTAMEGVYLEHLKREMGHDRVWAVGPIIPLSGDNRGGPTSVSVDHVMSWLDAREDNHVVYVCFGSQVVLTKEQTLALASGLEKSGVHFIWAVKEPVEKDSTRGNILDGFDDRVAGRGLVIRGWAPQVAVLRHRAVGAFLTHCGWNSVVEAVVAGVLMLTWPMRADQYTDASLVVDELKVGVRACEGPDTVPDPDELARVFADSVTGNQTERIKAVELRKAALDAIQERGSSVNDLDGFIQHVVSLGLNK
Protocol: as §1, with “After probe purification and MfeI digestion, probe integrity was identified using qPCR. Percent recovery of probe is reported as a heat map (n=8) (specific recovery figures and percent error can be found in FIG. 16). *=p<0.05 vs. no chemical control.” left out

| SMILES | recovery of probe (GT05 (UGT72B1 (Q9M156))) [%] | recovery of probe [1] [%] |
| --- | --- | --- |
| O=c1c(O)c(-c2ccc(O)cc2)oc2cc(O)cc(O)c12 [I, kaempferol] | 32 |  |
| O=C(O)c1ccc(O)cc1 [XI, 4-hydroxybenzoic acid] |  | 25 |
